Results from publication PMC10895678 (Journal of Medicinal Chemistry, 2024).

Tested on: HepG2 cells
Assay: HepG2 mitochondrial dysfunction (Glu/Gal cytotoxicity, MTT)
Type: cell-based
Details: glucose medium
Description: Compounds were solubilized to 30 mM in DMSO. The BGAz compounds were added to the HepG2 cell model in a 96-well microplate in half log dilutions from 100–0.0003 μM (final DMSO concentration 0.3%) using both glucose (DMEM consisting of 25 mM glucose) and galactose (DMEM consisting of 10 mM galactose) media. The compounds were incubated with the cell line for 24 h at 37 °C in a humidified CO2 tissue culture incubator, followed by cell viability staining with MTT (3-(4,5-dimethylthiazol-2-yl)-2.5-diphenyltetrazolium bromide) conversion to the Formazan product, determined by absorbance measurement. The cell viability IC50 was determined in HepG2 glucose and metabolism-modified HepG2 galactose, and the fold change difference between the Glu/Gal IC50 was determined. All experiments were performed in duplicate with the mitochondrial toxicity controls rotenone and Antimycin A and the cytotoxin control tamoxifen.

Structure (SMILES): Brc1cc(Br)cc(C2CC(CN3CCCC3)N2Cc2ccccc2Br)c1 (stereo not shown) [BGAz-004]
- HepG2 cytotoxicity (in words): negligible effect
